From PMC6804157, “Synthesis, Physicochemical Properties, and Biological Activities of 4-(S-Methyl-N-(2,2,2-Trifluoroacetyl)Sulfilimidoyl) Anthranilic Diamide” (Molecules, 2019) come the findings set out here.

The nature of data set [1]: Equilibrium solubility (μSOL). The format is physicochemical. To be noted: 25 °C, thermodynamic from solid. The method, then: (§1) Because we believed that the physicochemical properties of newly-prepared diamides play important roles in their insecticidal activities, the studies were extended to investigate the bioavailability of organosulfur-based crop-protecting agents 14, 15a, 15b, 16a, and 16b in terms of plant systemic properties and membrane permeability. As references, their properties of chlorantraniliprole and cyantraniliprole were also measured.
(§2) [37] The physicochemical measurements for determinations of equilibrium solubility, log P, and PAMPA permeability were performed by Drug Discovery Platform Technology Team, KRICT, Korea.
(§3) Table S3. Physical properties of organosulfur-substituted anthranilic […]
(§4) Entry X Y Log P c,d Permeability e […]
(§5) aMethod for determination of equilibrium solubility: μSOL 25; bat 25 ℃ and pH 7.4; cUsing ACD / Labs T3 method (pH – metric); dfor graphs, please see the supporting information, eMethod for determination of […]

Data set [2] can be described thus: pH-metric log P (ACD/Labs T3 method). The format is physicochemical. The method, then: as §1
[39] For LogP, Using ACD/Labs T3 method (pH—metric), for graphs; please see the Supplementary materials.
as §3, §4, §5

Data set [3] is classed as in vitro ADME. The following applies: PAMPA. The method, then: as §1, §2, §3, §4, §5
(The PAMPA barrier holds no transporters, so it reflects passive diffusion.)

For data set [4], the system named is third instar larvae of Spodoptera litura. Kind of data set: whole plant or invertebrate. The format is in vivo. To be noted: for mortality at 50 ppm / mortality at 25 ppm: Spodoptera litura. How it is done: For the practical test, newly-prepared compounds 14–16 were evaluated for their insecticidal activities against the third instar larvae of Spodoptera litura according to the reported leaf-dip method.
[35] According to the literature 3a, 3b, and 3d methods, the insecticidal assays were performed by Kyung Nong Co. Ltd., Korea. In detail, please see the Supplementary materials.
Table S1 and S2: Larvicidal activity against Spodoptera (14 and 15a)
The lavicidal activities of synthesized compounds were evaluated by the leaf-dip procedure. 6 The aqueous solution of prepared compounds and chlorantraniliprole in acetone (H 2O : acetone = 95 : 5) were sprayed to a cabbage leave placed on moistened filter paper (disc, diameter 8.8 cm) in petri dishes. After allowing to dry, the dishes were infested with 10 Spodoptera litura (third-instar). After 1, 2, 3, and 4 days, percentage of mortalities was evaluated. The treatments were replicated three times. For negative control, larvicidal activities were 0 % at each time. Ref. is chlorantraniliprole as a positive control.
Table S1. Larvicidal activity depend on time against the 3 rd instar larvae of Spodoptera litura
Entry Compd Concentration Larvicidal activity (%) at 24 h
Entry Compd Concentration Larvicidal activity (%) at 48 h

Setting [5] is: third instar larvae of S. litura, 96 h, concentration of 14 and 15a 50 ppm.
Setting [6] is: read-out: Larvicidal Activity (%) at Time (h) 72 h, third instar larvae of S. litura, 72 h, concentration of 14 and 15a 50 ppm.
The mark [7] stands for this setting: read-out: Larvicidal Activity (%) at Time (h) 96 h, third instar larvae of S. litura, 96 h, concentration of 14 and 15a 50 ppm.

Where “and” joins values, the source holds several entries; their conditions need not be identical. Equal entries are not always repeated. Where two headings read alike, the source gives them in different places.

On to `CNC(=O)c1cc(S(C)=NC(=O)C(F)(F)F)cc(C)c1NC(=O)c1cc(Br)nn1-c1ncccc1Cl` (stereo not shown) [Compound 15a, 3-Bromo-1-(3-chloropyridin-2-yl)-N-(2-methyl-4-(S-methyl-N-(2,2,2-trifluoroacetyl)sulfinimidoyl)-6-(methylcarbamoyl)phenyl)-1H-pyrazole-5-carboxamide], for which the solubility in data set [1] (pH 7.4, aqueous buffer) is 397 µM and 241 µg/mL. Besides, the logP in data set [2] amounted to 3.74. The Permeability entry in data set [3] is “- 4.5 ± 0.059”. Besides, the mortality at 50 ppm in data set [4] (24 h, read-out: Larvicidal activity (%) at 24 h, Average, 24 h, 50 ppm, average of three replicates) amounted to 0%; in data set [4] (24 h, read-out: Larvicidal activity (%) at 24 h, replicate 1, 24 h, 50 ppm) it was 0%; in data set [4] (24 h, read-out: Larvicidal activity (%) at 24 h, replicate 2, 24 h, 50 ppm), 0%; in data set [4] (24 h, read-out: Larvicidal activity (%) at 24 h, replicate 3, 24 h, 50 ppm) it was 0%; in data set [4] (48 h, read-out: Larvicidal activity (%) at 48 h, Average, 48 h, 50 ppm, average of three replicates) it was 0%; in data set [4] (48 h, read-out: Larvicidal activity (%) at 48 h, replicate 1, 48 h, 50 ppm) it was 0%. In addition, the mortality at 50 ppm stood at 0% in data set [4] (48 h, read-out: Larvicidal activity (%) at 48 h, replicate 2, 48 h, 50 ppm); 0% in data set [4] (48 h, read-out: Larvicidal activity (%) at 48 h, replicate 3, 48 h, 50 ppm); 46.7% in data set [4] (72 h, read-out: Larvicidal Activity (%) at Time (h) 72 h, third instar larvae of S. litura, 72 h, concentration of 14 and 15a 50 ppm); 50% in data set [4] (72 h, read-out: Larvicidal activity (%) at 72 h, replicate 1, 72 h, 50 ppm); 40% in data set [4] (72 h, read-out: Larvicidal activity (%) at 72 h, replicate 2, 72 h, 50 ppm); 50% in data set [4] (72 h, read-out: Larvicidal activity (%) at 72 h, replicate 3, 72 h, 50 ppm). In addition, the mortality at 50 ppm in data set [4] (96 h, read-out: Larvicidal Activity (%) at Time (h) 96 h, third instar larvae of S. litura, 96 h, concentration of 14 and 15a 50 ppm) is 53.3%; in data set [4] (96 h, read-out: Larvicidal activity (%) at 96 h, replicate 1, 96 h, 50 ppm) it was 50%; in data set [4] (96 h, read-out: Larvicidal activity (%) at 96 h, replicate 2, 96 h, 50 ppm), 50%; in data set [4] (96 h, read-out: Larvicidal activity (%) at 96 h, replicate 3, 96 h, 50 ppm) it was 60%. For the same compound, the “Eating Area (%) 96 h” value in data set [4] (setting [5]) was 5–10%.
For the compound `CNC(=O)c1cc(C#N)cc(C)c1NC(=O)c1cc(Br)nn1-c1ncccc1Cl` [Cyantraniliprole, cyantraniliprole, reference compound], the solubility in data set [1] (pH 7.4, aqueous buffer) was 378 µM and 179 µg/mL. The logP in data set [2] was found to be 3.5. Besides, the Permeability entry in data set [3] is listed as “- 4.4 ± 0.077”.
With `CNC(=O)c1cc(S(C)(=O)=O)cc(C)c1NC(=O)c1cc(Br)nn1-c1ncccc1Cl` [Compound 16b, 3-Bromo-1-(3-chloropyridin-2-yl)-N-(2-methyl-6-(methylcarbamoyl)-4-(methylsulfonyl)phenyl)-1H-pyrazole-5-carboxamide], the solubility in data set [1] (pH 7.4, aqueous buffer) is 124 µM and 65.6 µg/mL. In addition, the logP in data set [2] stood at 3.04. Moreover, the Permeability result in data set [3] is “- 4.5 ± 0.030”. In addition, the mortality in data set [4] (setting [6]) and in data set [4] (setting [7]) was 0% throughout. The “Eating Area (%) 96 h” value in data set [4] (setting [5]) is over 30%.
In the case of `CNC(=O)c1cc(S(C)(=O)=NC(=O)C(F)(F)F)cc(C)c1NC(=O)c1cc(Br)nn1-c1ncccc1Cl` (stereo not shown) [Compound 16a, 3-Bromo-1-(3-chloropyridin-2-yl)-N-(2-methyl-4-(S-methyl-N-(2,2,2-trifluoroacetyl)sulfonimidoyl)-6-(methylcarbamoyl)phenyl)-1H-pyrazole-5-carboxamide], the solubility in data set [1] (pH 7.4, aqueous buffer) is 397 µM and 247 µg/mL. Further, the logP in data set [2] is 4.95. Besides, the Permeability result in data set [3] was “- 4.7 ± 0.075”. Also, the mortality in data set [4] (setting [6]) and in data set [4] (setting [7]) was 0% throughout. In data set [4] (setting [5]), the “Eating Area (%) 96 h” value was over 30%.
`CNC(=O)c1cc(Cl)cc(C)c1NC(=O)c1cc(Br)nn1-c1ncccc1Cl` [Chlorantraniliprole, chlorantraniliprole, reference compound]: the solubility worked out at 21.5 ± 1.59 µM in data set [1] (aqueous buffer, μSOL, at 25 ℃ and pH 7.4, read-out: Solubility (Equilibrium)); 10.4 ± 0.771 µg/mL in data set [1] (pH 7.4, aqueous buffer). In data set [2] (ACD/Labs T3 method (pH-metric), read-out: Log P), the logP amounted to 5.25. The Permeability result in data set [3] is on record as “- 4.3 ± 0.046”. In data set [4] (25 ppm), the “Eating area (%)” value was 0–5%. Besides, the mortality at 25 ppm turned out to be 30% in data set [4] (24 h, read-out: Larvicidal activity (%) at 24 h, replicate 2, 24 h, 25 ppm); 86.7% in data set [4] (48 h, read-out: Larvicidal activity (%) at 48 h, Average, 48 h, 25 ppm, average of three replicates); 90% in data set [4] (48 h, read-out: Larvicidal activity (%) at 48 h, replicate 1, 48 h, 25 ppm); 80% in data set [4] (48 h, read-out: Larvicidal activity (%) at 48 h, replicate 2, 48 h, 25 ppm); 90% in data set [4] (48 h, read-out: Larvicidal activity (%) at 48 h, replicate 3, 48 h, 25 ppm); 100% in data set [4] (72 h, read-out: Larvicidal activity (%) at 72 h, Average, 72 h, 25 ppm, average of three replicates). For the same compound, the mortality at 25 ppm turned out to be 100% in data set [4] (72 h, read-out: Larvicidal activity (%) at 72 h, replicate 1, 72 h, 25 ppm); 100% in data set [4] (72 h, read-out: Larvicidal activity (%) at 72 h, replicate 2, 72 h, 25 ppm); 100% in data set [4] (72 h, read-out: Larvicidal activity (%) at 72 h, replicate 3, 72 h, 25 ppm); 100% in data set [4] (96 h, read-out: Larvicidal activity (%) at 96 h, Average, 96 h, 25 ppm, average of three replicates); 100% in data set [4] (96 h, read-out: Larvicidal activity (%) at 96 h, replicate 1, 96 h, 25 ppm); 100% in data set [4] (96 h, read-out: Larvicidal activity (%) at 96 h, replicate 2, 96 h, 25 ppm). The mortality at 25 ppm in data set [4] (96 h, read-out: Larvicidal activity (%) at 96 h, replicate 3, 96 h, 25 ppm) amounted to 100%. Further, the mortality in data set [4] (read-out: Larvicidal activity (%) at 24 h, replicate 2, 24 h, 25 ppm, listed as Ref.) stood at 20%; in data set [4] (read-out: Larvicidal activity (%) at 48 h, Average, 48 h, 25 ppm, average of three replicates, listed as Ref.), 66.7%; in data set [4] (read-out: Larvicidal activity (%) at 48 h, replicate 2, 48 h, 25 ppm, listed as Ref.), 70%; in data set [4] (read-out: Larvicidal activity (%) at 72 h, Average, 72 h, 25 ppm, average of three replicates), 100%; in data set [4] (read-out: Larvicidal activity (%) at 72 h, replicate 1, 72 h, 25 ppm) it was 100%; in data set [4] (read-out: Larvicidal activity (%) at 72 h, replicate 2, 72 h, 25 ppm) it was 100%. Further, the mortality is 100% in data set [4] (read-out: Larvicidal activity (%) at 72 h, replicate 3, 72 h, 25 ppm); 100% in data set [4] (read-out: Larvicidal activity (%) at 96 h, Average, 96 h, 25 ppm, average of three replicates); 100% in data set [4] (read-out: Larvicidal activity (%) at 96 h, replicate 1, 96 h, 25 ppm); 100% in data set [4] (read-out: Larvicidal activity (%) at 96 h, replicate 2, 96 h, 25 ppm); 100% in data set [4] (read-out: Larvicidal activity (%) at 96 h, replicate 3, 96 h, 25 ppm).

For orientation: solubility means how much of the substance goes into solution per volume.
